From patent publication US20110172416A1, “AMIDINE DERIVATIVE” (Ajinomoto Co., Inc., priority 2008, published 2011)

Key:
[1] = system: human plasma; test: Measurement of anti-blood coagulant activity (aPTT measurement method); type: biochemical; conditions: negative logarithmic value of concentration at which aPTT of the control was double-extended
Description: The test was performed according to an aPTT measurement method using a fully-automated blood coagulation time measuring apparatus Sysmex CA-1500. In a sample tube (MS-18, Japan Medical Science) were placed DDVP solution (10 mg/ml, DDVP standard product, Wako Corporation, 4 μL), a solution (20 μL) of a test compound, and human plasma (human plasma for blood coagulation test, GCH-100A, Sysmex Corporation, 180 μL) and this was used as a test sample. The test sample (50 μL) was incubated at 37° C. for 1 min, APTT (cephalin derived from rabbit brain, DADE Behiring, 50 μL) was added, and the mixture was further incubated at 37° C. for 2 min. To the sample solution was added calcium chloride (0.02 M, 50 μL), and the time before coagulation of the plasma was automatically measured.
The anti-blood coagulation activity was shown by the negative logarithmic value of a concentration at which aPTT of the control was double-extended as paPTT2.

[2] = Evaluation of stability in plasma; type: in vitro ADME; conditions: human plasma, 37° C., calculated from quantitative lower limit at 2 min when below quantification limit
Description: To human plasma (495 μL) was added a solution (5 μL) of the test compound prepared to 100 μg/mL (final drug solution concentration 1 μg/mL), and the mixture was incubated at 37° C. At 0 min, 2 min, 5 min, 10 min, 30 min and 60 min after the addition of the drug solution, 50 μL each was sampled. Acetonitrile (100 μL) was added and the mixture was admixed to discontinue the reaction. After discontinuation of the reaction, a protein elimination treatment was performed by centrifugation (15000 rpm, 5 min). The centrifugation supernatant (20 μL) was diluted with ammonium formate solution (100 mmol/L, pH 4, 180 μL), and subjected to the measurement by LC/MS/MS.
When the value at 2 min after the addition of the drug solution was less than the quantification limit, the half-life was calculated by the following method.
That is, the value at 0 min was taken as the theoretical concentration (1000 ng/mL) and the value at 2 min was taken as the quantitative lower limit concentration. The half-life (T1/2) was calculated from the inclination of the straight line connecting the logarithmic conversion values at the two points.

[3] = target: FXa (Homo sapiens, UniProt P00742); test: Measurement of activated factor X activity-inhibitory activity (chromogenic substrate S-2222); type: biochemical; conditions: negative logarithmic value of concentration suppressing reaction rate of control to 50%
Sequence of FXa (P00742 235-488 limits assumed): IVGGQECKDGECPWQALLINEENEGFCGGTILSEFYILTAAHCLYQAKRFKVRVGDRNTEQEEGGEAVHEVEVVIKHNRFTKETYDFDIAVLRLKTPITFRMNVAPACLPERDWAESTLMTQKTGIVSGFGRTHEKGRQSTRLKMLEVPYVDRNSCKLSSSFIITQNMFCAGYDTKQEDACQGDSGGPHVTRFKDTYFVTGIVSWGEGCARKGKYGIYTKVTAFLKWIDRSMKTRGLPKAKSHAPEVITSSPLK
Sequence of FXa (P00742 41-179 partner limits assumed): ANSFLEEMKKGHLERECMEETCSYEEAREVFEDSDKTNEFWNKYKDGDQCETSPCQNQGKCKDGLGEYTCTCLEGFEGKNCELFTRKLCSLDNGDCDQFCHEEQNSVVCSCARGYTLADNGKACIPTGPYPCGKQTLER
Description: (§1) Using a 96 well plate (#3396, Costar), Tris-HCl buffer (100 mM, 130 μL) containing 0.02% Tween 20, 0.1% PEG6000 and 0.2 M NaCl was blended with FXa (0.015 U/ml, 10 μL) and a test compound (10 μL) for 10 min, and a chromogenic substrate (0.2 mM, S-2222, 50 μL) was added. Using microplate reader Benchmark Plus (BIO-RAD), the reaction rate was measured from the time course changes in the absorbance at 405 nm. The reaction rate of the control was taken as 100%, and a negative logarithmic value of a concentration at which the reaction rate of the control could be suppressed to 50% was taken as the pIC50 value. The results are shown by pIC50 (FXa) in Table 2.

[4] = target: activated factor IIa (thrombin) (Homo sapiens, UniProt P00734); test: Measurement of activated factor II (FIIa, thrombin)-inhibitory activity (chromogenic substrate S-2238); type: biochemical; conditions: negative logarithmic value of concentration suppressing reaction rate of control to 50%
Description: as §1, with “activated factor IIa (thrombin, 0.125 U/mL,” for “FXa (0.015 U/ml,”, “(0.1” for “(0.2”, “S-2238,” for “S-2222,”, “of” for “in the”, “(IIa)” for “(FXa)”

Structure (SMILES) | paPTT2 [1] | half-life at 1 μg/mL [2] | IC50 [3] | IC50 [4]
N=C(N)N1CCc2ccc(C(=O)OCC3CCN(c4ccncc4)CC3)cc2C1 [compound of Ex. 2, [1-(pyridin-4-yl)piperidin-4-yl]methyl 2-[amino(imino)methyl]-1,2,3,4-tetrahydroisoquinoline-7-carboxylate ditrifluoroacetate] | 5.4 | < 23.7 s | 0.398 µM | > 100 µM
N=C(N)N1CCc2ccc(COC(=O)C3CCN(c4ccncc4)CC3)cc2C1 [compound of Ex. 3, {2-[amino(imino)methyl]-1,2,3,4-tetrahydroisoquinolin-7-yl}methyl 1-(pyridin-4-yl)piperidine-4-carboxylate ditrifluoroacetate] | 6.1 | < 23.9 s | 0.0794 µM | 63.1 µM
N=C(N)N1CCc2ccc(OC(=O)C3(COCc4ccccc4)CCN(c4ccncc4)CC3)cc2C1 [compound of Ex. 5, 2-[amino(imino)methyl]-1,2,3,4-tetrahydroisoquinolin-7-yl 4-[(benzyloxy)methyl]-1-(pyridin-4-yl)piperidine-4-carboxylate ditrifluoroacetate] | 5.4 | – | 0.501 µM | 20 µM
COCC1(C(=O)Oc2ccc3c(c2)CN(C(=N)N)CC3)CCN(c2ccncc2)CC1 [compound of Ex. 6, 2-[amino(imino)methyl]-1,2,3,4-tetrahydroisoquinolin-7-yl 4-methoxymethyl-1-(pyridin-4-yl)piperidine-4-carboxylate ditrifluoroacetate] | 5.4 | – | 1.58 µM | 39.8 µM
N=C(N)N1Cc2ccc(C(=O)OCC3CCN(c4ccncc4)CC3)cc2C1 [compound of Ex. 7, [1-(pyridin-4-yl)piperidin-4-yl]methyl 2-[amino(imino)methyl]isoindoline-5-carboxylate ditrifluoroacetate] | 4.6 | – | 7.94 µM | > 100 µM
N=C(N)N1Cc2ccc(COC(=O)C3CCN(c4ccncc4)CC3)cc2C1 [compound of Ex. 8, {2-[amino(imino)methyl]-isoindolin-5-yl}methyl 1-(pyridin-4-yl)piperidine-4-carboxylate ditrifluoroacetate] | <5 | – | 3.16 µM | > 100 µM
CC(=N)N1CCC(Oc2ccc(COC(=O)c3ccc4c(c3)CN(C(=N)N)CC4)cc2)CC1 [compound of Ex. 15, 4-{[1-(1-iminoethyl)piperidin-4-yl]oxy}benzyl 2-[amino(imino)methyl]-1,2,3,4-tetrahydroisoquinoline-7-carboxylate ditrifluoroacetate] | 4.4 | – | 10 µM | > 100 µM
CC(=N)N1CCC(Oc2ccc(C(=O)OCc3ccc4c(c3)CN(C(=N)N)CC4)cc2)CC1 [compound of Ex. 16, {2-[amino(imino)methyl]-1,2,3,4-tetrahydroisoquinolin-7-yl}methyl 4-{([1-(1-iminoethyl)piperidin-4-yl]oxy}benzoate ditrifluoroacetate] | 4.5 | – | 5.01 µM | > 100 µM
